Source: patent publication EP2271651B1, “ISOTHERMAL PROCESS FOR PHOSPHOROMONOCHLORIDITE SYNTHESIS” (Dow Global Technologies LLC, priority 2008, dated 2009)
Read-outs that look alike come from different tables or passages of the source.

How the values were obtained:
[1] = Solubility of the aromatic diol in organic solvent (equilibrium solubility method); type: physicochemical; conditions: based on the weight of the solution
From the text: The solubility of the aromatic diol in the organic solvent can be measured by using known procedures. For example, the solubility of the aromatic diol in the organic solvent at a specific temperature can be determined by an equilibrium solubility method, which employs a saturated solution of the aromatic diol, obtained by stirring an excess amount of the aromatic diol in the organic solvent at the specific temperature for a sufficient period of time until equilibrium is achieved. Thereafter, the resulting liquid phase saturated solution, the resulting solid phase, or both liquid and solid phases are analyzed by any conventional analytical method to arrive at the solubility of the aromatic diol in the organic solvent.
In this first embodiment, generally, the aromatic diol has a low solubility in the first organic solvent. […] Accordingly, this embodiment generally requires a) a large quantity of the first organic solvent to solubilize essentially all of the aromatic diol, and/or b) preparation and maintenance of the feed solution at an elevated temperature to increase and maintain solubility of the diol in the feed solution. […]

[2] = cited from earlier work; for HCl solubility: total pressure of 760 mm Hg (101 kPa)

SMILES | HCl solubility ([2]; At 20°C) [Mol/mol organic solvent] | HCl solubility ([2]; At 10°C) [Mol/mol organic solvent] | also measured
Oc1ccccc1-c1ccccc1O [2,2'-biphenol] |  |  | solubility in toluene ([1]; at 19°C): 2.7 percent by weight; solubility in toluene ([1]; at 40°C): 7.3 percent by weight
Clc1ccccc1 [Chlorobenzene] | 0.033 |  | 
C1CCOC1 [Tetrahydrofuran] |  |  | hydrogen chloride absorbed/dissolved by one mole of solvent ([2]; at 10°C and a total pressure of 760 mm Hg (101 kPa)): 1.38 mol
Cc1cccc(C)c1 [m-Xylene] | 0.071 |  | 
CCCCCCCCCC [n-Decane] |  | 0.028 | 
CCCCCCC [n-Heptane] | 0.015 | 0.02 | 
Cc1ccc(C)cc1 [p-Xylene] | 0.064 | 0.08 | 
